The results in this text go back to US12440484B2, “1,3,4-oxadiazole homophthalimide derivative compounds as histone deacetylase 6 inhibitor, and the pharmaceutical composition comprising the same” (Chong Kun Dang Pharmaceutical Corp., priority 2019, dated 2025).

For one experiment, the target named is HDAC1 (Homo sapiens (Human), UniProt Q13547). The experiment in a line: HDAC enzyme activity inhibition (in vitro), HDAC1 Fluorimetric Drug Discovery Assay Kit. The note with it: samples at 100, 1000 and 10000 nM; 37° C. 60 minutes; fluorescence Ex 390, Em 460. In kind it is biochemical.
The next experiment deals with HDAC6 human recombinant (Homo sapiens (Human), UniProt Q9UBN7). The experiment in a line: HDAC enzyme activity inhibition (in vitro), HDAC6 assay. In kind it is biochemical. The note with it: samples at 0.1, 1, 10, 100 and 1000 nM; 37° C. 60 minutes; fluorescence Ex 390, Em 460.

SMILES strings stand for the structures.

Sequence of HDAC1 (Q13547 whole entry): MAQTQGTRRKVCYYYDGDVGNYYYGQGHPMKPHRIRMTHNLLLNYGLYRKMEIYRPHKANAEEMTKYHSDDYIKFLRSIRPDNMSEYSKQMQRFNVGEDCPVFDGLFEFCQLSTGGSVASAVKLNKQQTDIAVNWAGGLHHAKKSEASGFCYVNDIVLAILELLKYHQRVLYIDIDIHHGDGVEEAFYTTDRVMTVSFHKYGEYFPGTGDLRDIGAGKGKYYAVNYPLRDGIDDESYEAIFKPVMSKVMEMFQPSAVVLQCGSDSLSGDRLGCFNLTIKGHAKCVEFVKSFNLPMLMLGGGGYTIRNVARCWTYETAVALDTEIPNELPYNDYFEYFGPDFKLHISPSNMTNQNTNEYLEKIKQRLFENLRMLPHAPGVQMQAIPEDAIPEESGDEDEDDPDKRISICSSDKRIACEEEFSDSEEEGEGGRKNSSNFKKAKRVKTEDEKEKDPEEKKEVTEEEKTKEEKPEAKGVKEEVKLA
Sequence of HDAC6 human recombinant (Q9UBN7 whole entry): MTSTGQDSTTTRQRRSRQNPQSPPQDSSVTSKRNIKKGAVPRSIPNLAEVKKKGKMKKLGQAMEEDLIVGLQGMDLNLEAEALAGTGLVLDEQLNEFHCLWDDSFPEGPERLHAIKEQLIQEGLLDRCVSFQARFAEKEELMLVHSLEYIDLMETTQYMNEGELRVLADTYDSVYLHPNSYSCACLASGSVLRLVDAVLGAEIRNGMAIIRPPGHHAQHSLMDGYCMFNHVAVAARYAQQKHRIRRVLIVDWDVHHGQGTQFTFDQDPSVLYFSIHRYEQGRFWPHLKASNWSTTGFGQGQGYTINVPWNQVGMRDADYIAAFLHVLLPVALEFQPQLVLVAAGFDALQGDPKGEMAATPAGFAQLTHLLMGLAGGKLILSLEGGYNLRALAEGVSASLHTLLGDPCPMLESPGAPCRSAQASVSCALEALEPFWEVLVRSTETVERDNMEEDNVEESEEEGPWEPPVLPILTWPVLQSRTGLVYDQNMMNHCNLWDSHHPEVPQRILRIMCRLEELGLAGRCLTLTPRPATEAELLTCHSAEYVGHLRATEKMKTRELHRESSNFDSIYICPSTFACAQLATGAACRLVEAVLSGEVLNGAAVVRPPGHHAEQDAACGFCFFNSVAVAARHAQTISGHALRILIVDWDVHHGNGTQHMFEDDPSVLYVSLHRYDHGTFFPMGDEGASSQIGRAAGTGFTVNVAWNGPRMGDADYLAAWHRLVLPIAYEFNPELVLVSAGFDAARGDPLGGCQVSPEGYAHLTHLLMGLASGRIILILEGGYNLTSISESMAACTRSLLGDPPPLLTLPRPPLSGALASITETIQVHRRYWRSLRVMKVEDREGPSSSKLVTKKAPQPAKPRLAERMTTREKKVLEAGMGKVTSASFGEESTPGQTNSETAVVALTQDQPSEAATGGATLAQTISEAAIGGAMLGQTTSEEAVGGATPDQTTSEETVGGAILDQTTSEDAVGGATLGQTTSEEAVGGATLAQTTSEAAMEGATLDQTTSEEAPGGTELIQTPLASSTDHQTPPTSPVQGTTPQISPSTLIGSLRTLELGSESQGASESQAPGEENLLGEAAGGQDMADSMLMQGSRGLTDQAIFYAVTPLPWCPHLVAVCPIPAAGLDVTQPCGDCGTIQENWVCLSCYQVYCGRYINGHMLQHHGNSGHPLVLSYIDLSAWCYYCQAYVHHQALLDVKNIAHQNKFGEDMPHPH

As a reminder, the IC50 is the point on the concentration scale where inhibition reaches its midpoint. With `CC1(C)C(=O)N(Cc2ccc(-c3nnc(C(F)F)o3)cn2)C(=O)c2ccc(N3CCN(C4CCC(F)(F)CC4)CC3)cc21` [Compound 150, 6-(4-(4,4-difluorocyclohexyl)piperazine-1-yl)-2-((5-(5-(difluoromethyl)-1,3,4-oxadiazole-2-yl)pyridine-2-yl)methyl)-4,4-dimethylisoquinoline-1,3(2H,4H)-dione], the IC50 against HDAC1 was above 10000 nM; at HDAC6 human recombinant it was 51 nM.

For the compound `Cn1c(=O)n(Cc2ccc(-c3nnc(C(F)F)o3)cn2)c(=O)c2cc(F)ccc21` [Compound 70, 3-((5-(5-(difluoromethyl)-1,3,4-oxadiazole-2-yl)pyridine-2-yl)methyl)-6-fluoro-1-methylquinazoline-2,4(1H,3H)-dione], the IC50 against HDAC1 is above 10000 nM; on HDAC6 human recombinant, 59 nM.

As to `CCN1CCN(c2ccc3c(c2)C(C)(C)C(=O)N(Cc2ccc(-c4nnc(C(F)F)o4)cn2)C3=O)CC1` [Compound 39, 2-((5-(5-(difluoromethyl)-1,3,4-oxadiazole-2-yl)pyridine-2-yl)methyl)-6-(4-ethylpiperazine-1-yl)-4,4-dimethylisoquinoline-1,3(2H,4H)-dione], the figures for the IC50 at HDAC1 and at HDAC6 human recombinant were above 10000 nM and 18 nM, respectively.

For the compound `CCCN1CCN(c2ccc3c(c2)C(C)(C)C(=O)N(Cc2ccc(-c4nnc(C(F)F)o4)cn2)C3=O)CC1` [Compound 148], the concentration for half-maximal inhibition (IC50) at HDAC1 is above 10000 nM; on HDAC6 human recombinant it was 32 nM.

On to `CC1(C)C(=O)N(Cc2ccc(-c3nnc(C(F)F)o3)cn2)C(=O)c2cc(-c3ccoc3)ccc21` [Compound 112, 2-((5-(5-(difluoromethyl)-1,3,4-oxadiazole-2-yl)pyridine-2-yl)methyl)-7-(furan-3-yl)-4,4-dimethylisoquinoline-1,3(2H,4H)-dione], for which the 50% inhibitory concentration (IC50) was above 10000 nM against HDAC1 and 50 nM on HDAC6 human recombinant.

Take `COCCn1c(=O)c2ccccc2n(Cc2ccc(-c3nnc(C(F)F)o3)cn2)c1=O` [Compound 76, 1-((5-(5-(difluoromethyl)-1,3,4-oxadiazole-2-yl)pyridine-2-yl)methyl)-3-(2-methoxyethyl)quinazoline-2,4(1H,3H)-dione]: the IC50 against HDAC1 is above 10000 nM; on HDAC6 human recombinant it was 79 nM.

For `CC1(C)C(=O)N(Cc2ncc(-c3nnc(C(F)F)o3)cn2)C(=O)c2ccc(Br)cc21` [Compound 152, 6-bromo-2-((5-(5-(difluoromethyl)-1,3,4-oxadiazole-2-yl)pyrimidine-2-yl)methyl)-4,4-dimethylisoquinoline-1,3(2H,4H)-dione], the IC50 was above 10000 nM against HDAC1 and 125 nM at HDAC6 human recombinant.

Regarding `COCCn1c(=O)c2ccccc2n(Cc2ccc(-c3nnc(C(F)F)o3)cc2)c1=O` [Compound 75, 1-(4-(5-(difluoromethyl)-1,3,4-oxadiazole-2-yl)benzyl)-3-(2-methoxyethyl)quinazoline-2,4(1H,3H)-dione], the IC50 on HDAC1 was above 10000 nM; at HDAC6 human recombinant, 368 nM.

For the compound `CN1CCC(c2ccc3c(c2)C(C)(C)C(=O)N(Cc2ccc(-c4nnc(C(F)F)o4)cn2)C3=O)CC1` [Compound 44, 2-((5-(5-(difluoromethyl)-1,3,4-oxadiazole-2-yl)pyridine-2-yl)methyl)-4,4-dimethyl-6-(1-methylpiperidine-4-yl)isoquinoline-1,3(2H,4H)-dione], the results for the IC50 against HDAC1 and on HDAC6 human recombinant were above 10000 nM and 19 nM, respectively.

For `CC1(C)C(=O)N(Cc2ccc(-c3nnc(C(F)F)o3)cn2)C(=O)c2cc(-c3ccccc3F)ccc21` [Compound 109, 2-((5-(5-(difluoromethyl)-1,3,4-oxadiazole-2-yl)pyridine-2-yl)methyl)-7-(2-fluorophenyl)-4,4-dimethylisoquinoline-1,3(2H,4H)-dione], the IC50 was above 10000 nM on HDAC1 and 107 nM on HDAC6 human recombinant.

For the compound `COc1ccc(Cn2c(=O)n(Cc3ccc(-c4nnc(C(F)F)o4)cn3)c(=O)c3ccccc32)cc1` [Compound 13, 3-((5-(5-(difluoromethyl)-1,3,4-oxadiazole-2-yl)pyridine-2-yl)methyl)-1-(4-methoxybenzyl)quinazoline-2,4(1H,3H)-dione], the IC50 at HDAC1 was above 10000 nM; on HDAC6 human recombinant, 225 nM.

For `CN1CC=C(c2ccc3c(c2)C(C)(C)C(=O)N(Cc2ccc(-c4nnc(C(F)F)o4)cn2)C3=O)CC1` [Compound 42, 2-((5-(5-(difluoromethyl)-1,3,4-oxadiazole-2-yl)pyridine-2-yl)methyl)-4,4-dimethyl-6-(1-methyl-1,2,3,6-tetrahydropyridine-4-yl)isoquinoline-1,3(2H,4H)-dione], the IC50 at HDAC1 is above 10000 nM; at HDAC6 human recombinant, 35 nM.

As for `CC(C)(C)OC(=O)N1CCN(c2ccc3c(c2)C(C)(C)C(=O)N(Cc2ccc(-c4nnc(C(F)F)o4)cn2)C3=O)CC1` [Compound 25, tert-butyl 4-(2-((5-(5-(difluoromethyl)-1,3,4-oxadiazole-2-yl)pyridine-2-yl)methyl)-4,4-dimethyl-1,3-dioxo-1,2,3,4-tetrahydroisoquinoline-6-yl)piperazine-1-carboxylate], the IC50 against HDAC1 was above 10000 nM; on HDAC6 human recombinant, 158 nM.

On to `CC1(C)C(=O)N(Cc2ccc(-c3nnc(C(F)F)o3)cn2)C(=O)c2cc(-c3ccncc3)ccc21` [Compound 110, 2-((5-(5-(difluoromethyl)-1,3,4-oxadiazole-2-yl)pyridine-2-yl)methyl)-4,4-dimethyl-7-(pyridine-4-yl)isoquinoline-1,3(2H,4H)-dione], for which the IC50 on HDAC1 is above 10000 nM; on HDAC6 human recombinant, 15 nM.

For the compound `CC1(C)C(=O)N(Cc2ccc(-c3nnc(C(F)F)o3)cn2)C(=O)c2ccc(C3CCN(C4CCC4)CC3)cc21` [Compound 64, 6-(1-cyclobutylpiperidine-4-yl)-2-((5-(5-(difluoromethyl)-1,3,4-oxadiazole-2-yl)pyridine-2-yl)methyl)-4,4-dimethylisoquinoline-1,3(2H,4H)-dione], the IC50 against HDAC1 was above 10000 nM; at HDAC6 human recombinant it was 25 nM.

Regarding `CC1(C)C(=O)N(Cc2ccc(-c3nnc(C(F)F)o3)cn2)C(=O)c2c(-c3ccco3)cccc21` [Compound 82, 2-((5-(5-(difluoromethyl)-1,3,4-oxadiazole-2-yl)pyridine-2-yl)methyl)-8-(furan-2-yl)-4,4-dimethylisoquinoline-1,3(2H,4H)-dione], the IC50 against HDAC1 is above 10000 nM; at HDAC6 human recombinant it was 92 nM.

Regarding `CC1(C)C(=O)N(Cc2ccc(-c3nnc(C(F)F)o3)cn2)C(=O)c2ccc(N3CCN(CC(F)(F)C(F)F)CC3)cc21` [Compound 137, 2-((5-(5-(difluoromethyl)-1,3,4-oxadiazole-2-yl)pyridine-2-yl)methyl)-4,4-dimethyl-6-(4-(2,2,3,3-tetrafluoropropyl)piperazine-1-yl)isoquinoline-1,3(2H,4H)-dione], the IC50 on HDAC1 was above 10000 nM; at HDAC6 human recombinant, 89 nM.

Regarding `CC(C)(C)OC(=O)N1CC=C(c2ccc3c(c2)C(=O)N(Cc2ccc(-c4nnc(C(F)F)o4)cn2)C(=O)C3(C)C)CC1` [Compound 53, tert-butyl 4-(2-((5-(5-(difluoromethyl)-1,3,4-oxadiazole-2-yl)pyridine-2-yl)methyl)-4,4-dimethyl-1,3-dioxo-1,2,3,4-tetrahydroisoquinoline-7-yl)-3,6-dihydropyridine-1(2H)-carboxylate], the figures for the IC50 against HDAC1 and on HDAC6 human recombinant were above 10000 nM and 427 nM, respectively.

Consider `CC1(C)C(=O)N(Cc2ccc(-c3nnc(C(F)F)o3)cn2)C(=O)c2ccc(N3CCN(C4CC4)CC3)cc21` [Compound 47, 6-(4-cyclopropylpiperazine-1-yl)-2-((5-(5-(difluoromethyl)-1,3,4-oxadiazole-2-yl)pyridine-2-yl)methyl)-4,4-dimethylisoquinoline-1,3(2H,4H)-dione], for which the IC50 was above 10000 nM on HDAC1 and 49 nM at HDAC6 human recombinant.

Turning to `Cn1c(=O)n(Cc2ccc(-c3nnc(C(F)F)o3)cn2)c(=O)c2cc(-c3ccco3)ccc21` [Compound 87, 3-((5-(5-(difluoromethyl)-1,3,4-oxadiazole-2-yl)pyridine-2-yl)methyl)-6-(furan-2-yl)-1-methylquinazoline-2,4(1H,3H)-dione], the values for the IC50 on HDAC1 and on HDAC6 human recombinant were above 10000 nM and 23 nM, respectively.

Consider `O=C1Cc2ccccc2C(=O)N1Cc1ccc(-c2nnc(C(F)F)o2)cn1` [Compound 65, 2-((5-(5-(difluoromethyl)-1,3,4-oxadiazole-2-yl)pyridine-2-yl)methyl)isoquinoline-1,3(2H,4H)-dione], for which the IC50 on HDAC1 was above 10000 nM; at HDAC6 human recombinant, 133 nM.

With `Cn1c(=O)n(Cc2ccc(-c3nnc(C(F)F)o3)cn2)c(=O)c2cc(-c3ccncc3)ccc21` [Compound 92, 3-((5-(5-(difluoromethyl)-1,3,4-oxadiazole-2-yl)pyridine-2-yl)methyl)-1-methyl-6-(pyridine-4-yl)quinazoline-2,4(1H,3H)-dione], the IC50 was above 10000 nM against HDAC1 and 35 nM on HDAC6 human recombinant.

Turning to `Cn1c(=O)n(Cc2ccc(-c3nnc(C(F)F)o3)cn2)c(=O)c2ccccc21` [Compound 18, 3-((5-(5-(difluoromethyl)-1,3,4-oxadiazole-2-yl)pyridine-2-yl)methyl)-1-methylquinazoline-2,4(1H,3H)-dione], the IC50 on HDAC1 was above 10000 nM; on HDAC6 human recombinant, 132 nM.

Turning to `CC1(C)C(=O)N(Cc2ccc(-c3nnc(C(F)F)o3)cn2)C(=O)c2ccc(C3CCN(CC4CCOCC4)CC3)cc21` [Compound 62, 2-((5-(5-(difluoromethyl)-1,3,4-oxadiazole-2-yl)pyridine-2-yl)methyl)-4,4-dimethyl-6-(1-((tetrahydro-2H-pyran-4-yl)methyl)piperidine-4-yl)isoquinoline-1,3(2H,4H)-dione], the IC50 at HDAC1 was above 10000 nM; on HDAC6 human recombinant, 61 nM.

With `CC1(C)C(=O)N(Cc2ccc(-c3nnc(C(F)F)o3)cn2)C(=O)c2c(-c3ccncc3)cccc21` [Compound 84, 2-((5-(5-(difluoromethyl)-1,3,4-oxadiazole-2-yl)pyridine-2-yl)methyl)-4,4-dimethyl-8-(pyridine-4-yl)isoquinoline-1,3(2H,4H)-dione], the figures for the IC50 on HDAC1 and at HDAC6 human recombinant were above 10000 nM and 79 nM, respectively.
